Assay type in all cases: biochemical
Experiment [1] concerns the target CDK4/CycD1 (Homo sapiens, UniProt P11802). Nature of the experiment: kinase panel, HTRF or ADP-Glo, single dose. The conditions noted are these: read-out: % inhibition at 1 μM. On the technique in general: In TR-FRET formats the signal depends on donor and acceptor labels being close together.
Experiment [2] deals with recombinant CK2 (casein kinase 2) (Homo sapiens, UniProt P68400). Nature of the experiment: Kinase-Glo residual ATP luminescence. On the technique in general: In Kinase-Glo more light means more ATP remaining.
In experiment [3] the target is CDK3/CycE1 (Homo sapiens, UniProt Q00526). Nature of the experiment: kinase panel, HTRF or ADP-Glo, single dose. Conditions: read-out: % inhibition at 10 μM.
Experiment [4] has as its target CDK2/CycE1 (Homo sapiens, UniProt P24941). The experiment is described as follows: kinase panel, HTRF or ADP-Glo, single dose. Conditions: read-out: % inhibition at 10 μM.
The target of experiment [5] is CDK1/CycA2 (Homo sapiens, UniProt P06493). Nature of the experiment: kinase panel, HTRF or ADP-Glo, single dose. The conditions noted are these: read-out: % inhibition at 10 μM.
The target of experiment [6] is CDK9/CycT1 (Homo sapiens, UniProt P50750). Nature of the experiment: kinase panel, HTRF or ADP-Glo, single dose. Conditions: read-out: % inhibition at 10 μM.

The text below walks through data of doi:10.1101/2025.11.12.688093v2 (biorxiv, 2026).

Chain of recombinant CK2 (casein kinase 2) (P68400 whole entry): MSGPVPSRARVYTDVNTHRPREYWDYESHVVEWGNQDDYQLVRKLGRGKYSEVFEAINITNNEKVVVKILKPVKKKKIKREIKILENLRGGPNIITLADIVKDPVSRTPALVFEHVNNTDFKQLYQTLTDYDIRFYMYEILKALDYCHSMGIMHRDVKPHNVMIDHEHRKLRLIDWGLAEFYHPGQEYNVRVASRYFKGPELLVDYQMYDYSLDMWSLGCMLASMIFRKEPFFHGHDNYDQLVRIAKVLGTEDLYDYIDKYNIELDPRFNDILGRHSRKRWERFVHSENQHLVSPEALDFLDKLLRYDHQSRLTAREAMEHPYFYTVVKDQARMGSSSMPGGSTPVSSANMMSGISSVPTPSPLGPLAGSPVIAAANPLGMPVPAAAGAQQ
Chain of recombinant CK2 (casein kinase 2) (P67870 2-215 partner): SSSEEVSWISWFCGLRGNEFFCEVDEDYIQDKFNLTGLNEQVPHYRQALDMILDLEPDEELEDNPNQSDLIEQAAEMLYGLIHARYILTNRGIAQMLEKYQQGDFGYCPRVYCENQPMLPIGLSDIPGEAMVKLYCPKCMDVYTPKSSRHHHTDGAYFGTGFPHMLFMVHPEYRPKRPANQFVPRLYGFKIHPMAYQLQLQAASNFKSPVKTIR
Chain of CDK3/CycE1 (Q00526 whole entry): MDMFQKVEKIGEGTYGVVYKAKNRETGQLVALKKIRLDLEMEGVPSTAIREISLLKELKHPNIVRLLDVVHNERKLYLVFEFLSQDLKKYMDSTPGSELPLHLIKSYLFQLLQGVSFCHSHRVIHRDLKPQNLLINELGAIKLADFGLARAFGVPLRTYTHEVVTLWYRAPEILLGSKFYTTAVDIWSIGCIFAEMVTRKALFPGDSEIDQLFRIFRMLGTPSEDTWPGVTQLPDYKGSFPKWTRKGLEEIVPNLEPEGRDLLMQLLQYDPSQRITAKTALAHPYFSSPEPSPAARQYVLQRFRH
Chain of CDK3/CycE1 (P24864 whole entry, further chain): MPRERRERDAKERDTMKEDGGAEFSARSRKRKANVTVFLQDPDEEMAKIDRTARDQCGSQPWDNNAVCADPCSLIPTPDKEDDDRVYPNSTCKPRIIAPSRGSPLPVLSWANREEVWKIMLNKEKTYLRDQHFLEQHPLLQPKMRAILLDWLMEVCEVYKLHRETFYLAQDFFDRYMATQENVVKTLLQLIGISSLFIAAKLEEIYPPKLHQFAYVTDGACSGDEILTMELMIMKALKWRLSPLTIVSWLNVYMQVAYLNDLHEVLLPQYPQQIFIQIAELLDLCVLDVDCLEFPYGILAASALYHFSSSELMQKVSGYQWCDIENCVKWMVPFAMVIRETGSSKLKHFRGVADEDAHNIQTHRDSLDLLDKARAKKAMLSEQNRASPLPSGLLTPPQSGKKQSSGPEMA
Chain of CDK9/CycT1 (P50750 whole entry): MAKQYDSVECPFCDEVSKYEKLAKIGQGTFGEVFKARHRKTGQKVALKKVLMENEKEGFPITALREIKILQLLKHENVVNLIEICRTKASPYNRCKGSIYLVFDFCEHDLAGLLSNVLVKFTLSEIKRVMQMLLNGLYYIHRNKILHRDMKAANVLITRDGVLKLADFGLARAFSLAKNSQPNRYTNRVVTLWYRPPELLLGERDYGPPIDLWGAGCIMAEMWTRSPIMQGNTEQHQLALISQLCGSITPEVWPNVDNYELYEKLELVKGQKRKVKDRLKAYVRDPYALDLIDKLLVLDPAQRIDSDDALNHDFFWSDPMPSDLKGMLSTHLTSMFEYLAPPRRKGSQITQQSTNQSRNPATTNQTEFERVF
Chain of CDK9/CycT1 (O60563 whole entry partner): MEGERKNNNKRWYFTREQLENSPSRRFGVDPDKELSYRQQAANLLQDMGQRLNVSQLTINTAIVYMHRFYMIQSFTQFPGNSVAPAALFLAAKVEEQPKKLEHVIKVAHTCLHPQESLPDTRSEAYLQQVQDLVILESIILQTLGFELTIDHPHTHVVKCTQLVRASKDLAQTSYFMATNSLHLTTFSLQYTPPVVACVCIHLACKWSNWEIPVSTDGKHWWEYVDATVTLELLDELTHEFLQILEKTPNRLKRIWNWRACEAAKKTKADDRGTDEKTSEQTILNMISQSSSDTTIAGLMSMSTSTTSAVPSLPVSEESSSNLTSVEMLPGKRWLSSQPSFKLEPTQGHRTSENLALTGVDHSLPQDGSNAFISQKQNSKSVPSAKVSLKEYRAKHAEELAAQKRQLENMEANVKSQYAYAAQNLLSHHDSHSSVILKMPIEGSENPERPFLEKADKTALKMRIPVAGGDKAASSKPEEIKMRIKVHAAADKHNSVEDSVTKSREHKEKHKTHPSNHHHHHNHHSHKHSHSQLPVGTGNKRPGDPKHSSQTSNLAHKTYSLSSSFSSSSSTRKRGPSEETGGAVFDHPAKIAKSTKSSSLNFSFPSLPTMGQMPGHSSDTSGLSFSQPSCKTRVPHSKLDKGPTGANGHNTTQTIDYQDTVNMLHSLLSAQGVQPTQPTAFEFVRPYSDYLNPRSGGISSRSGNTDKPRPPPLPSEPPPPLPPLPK
Chain of CDK4/CycD1 (P11802 2-303): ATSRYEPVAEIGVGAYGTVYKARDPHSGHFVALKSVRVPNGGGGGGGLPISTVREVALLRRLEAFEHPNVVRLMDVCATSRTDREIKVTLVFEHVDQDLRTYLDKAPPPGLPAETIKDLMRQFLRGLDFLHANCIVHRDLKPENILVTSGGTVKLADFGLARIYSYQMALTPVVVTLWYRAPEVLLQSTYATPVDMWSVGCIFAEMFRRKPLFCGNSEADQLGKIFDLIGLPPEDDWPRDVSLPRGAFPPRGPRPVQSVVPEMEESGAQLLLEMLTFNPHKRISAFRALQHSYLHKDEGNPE
Chain of CDK4/CycD1 (P24385 whole entry partner): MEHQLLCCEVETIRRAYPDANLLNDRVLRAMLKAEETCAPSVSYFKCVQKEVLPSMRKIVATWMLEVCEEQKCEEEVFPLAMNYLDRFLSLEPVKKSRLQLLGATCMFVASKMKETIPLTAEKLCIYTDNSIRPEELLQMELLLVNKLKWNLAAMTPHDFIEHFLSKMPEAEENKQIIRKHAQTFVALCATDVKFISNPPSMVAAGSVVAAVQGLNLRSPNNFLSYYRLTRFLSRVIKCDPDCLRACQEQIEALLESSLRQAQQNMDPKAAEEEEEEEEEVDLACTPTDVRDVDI
Chain of CDK1/CycA2 (P20248 whole entry): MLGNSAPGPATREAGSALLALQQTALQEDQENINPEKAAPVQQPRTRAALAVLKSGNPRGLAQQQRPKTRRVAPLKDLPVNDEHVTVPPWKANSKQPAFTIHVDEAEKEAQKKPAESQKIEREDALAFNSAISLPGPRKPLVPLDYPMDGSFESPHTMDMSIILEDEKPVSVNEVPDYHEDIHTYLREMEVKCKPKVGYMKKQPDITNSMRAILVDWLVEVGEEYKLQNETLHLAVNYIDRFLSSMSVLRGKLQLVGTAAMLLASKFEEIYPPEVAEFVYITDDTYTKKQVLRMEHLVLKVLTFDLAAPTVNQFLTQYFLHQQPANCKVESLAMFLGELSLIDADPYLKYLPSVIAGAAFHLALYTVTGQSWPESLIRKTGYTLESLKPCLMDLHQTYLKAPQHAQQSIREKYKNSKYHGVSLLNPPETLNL
Chain of CDK1/CycA2 (P06493 whole entry): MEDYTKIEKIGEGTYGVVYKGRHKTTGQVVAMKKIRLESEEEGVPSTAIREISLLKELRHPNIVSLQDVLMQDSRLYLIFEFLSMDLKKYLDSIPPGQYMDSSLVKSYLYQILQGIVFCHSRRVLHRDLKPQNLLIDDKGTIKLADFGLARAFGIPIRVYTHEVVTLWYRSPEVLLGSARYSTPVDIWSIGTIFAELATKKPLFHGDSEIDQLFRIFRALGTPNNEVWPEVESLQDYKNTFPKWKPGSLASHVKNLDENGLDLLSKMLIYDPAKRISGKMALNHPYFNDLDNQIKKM

Take `N=C1NC(=O)/C(=C/c2ccc(O)c([N+](=O)[O-])c2)S1` [compound 2, Compound 2]: in experiment [1], the inhibition at 1 µM was 10.2%. Moreover, the IC50 in experiment [2] came to 156 nM.
Turning to `Cc1cccc(NCN2C(=O)S/C(=C\c3ccccc3)C2=O)c1` [compound 3, Compound 3], the inhibition at 10 µM was 15.3% in experiment [3], 12.4% in experiment [4], 14.7% in experiment [5] and 36.1% in experiment [6]. Also, the half-maximal inhibitory concentration (IC50) in experiment [2] is 199 nM.

What is called inhibition is the percentage by which the read-out fell short of the control. The term IC50 denotes the concentration that inhibits the measured activity by half.
